Patent US9474790B2, “Stable, protracted GLP-1/glucagon receptor co-agonists for medical use” (Novo Nordisk A/S, priority 2013, dated 2016)
Numbered stars: 1 amine (or outer) side, 2 acyl side, 3 side chain; on linkers, the order of the positions; unused ones are H or OH. Square brackets hold non-standard residues; d marks the D form. Side chains are listed from the residue outwards. Peptide text beside a SMILES is read from it. * marks the point of attachment. C18 diacid = O=C(O)CCCCCCCCCCCCCCCCC(=O)*; γGlu = O=C(O)[C@H](CCC(=O)[*:2])N[*:1]; AEEA = NCCOCCOCC(=O)O; Ac3c = NC1(C(=O)O)CC1; Aib = CC(C)(N)C(=O)O

Tests used:
human GLP-1 receptor = target: T1, human GLP-1 receptor (Homo sapiens, UniProt P43220); assay: GLP-1 receptor potency, CRE luciferase reporter gene assay in BHK cells; format: cell-based; details: BHK cells expressing human GLP-1 receptor, read-out: EC50 GLP-1R
T1 construct: expressed in transfected cells; host or cells: BHK cells (parent BHKTS13), clone FCW467-12A/KZ10-1, with CRE luciferase
Protocol: The purpose of this example was to test the potency, of the glucagon derivatives of the invention, in vitro. The in vitro potency is the measure of human GLP-1 receptor or glucagon receptor activation, respectively, in a whole cell assay.
In vitro potency was determined by measuring the response of human GLP-1 or glucagon receptor, respectively, in a reporter gene assay. The assay was performed in a stably transfected BHK cell line that expresses either the human GLP-1 receptor or the human glucagon receptor and contains the DNA for the cAMP response element (CRE) coupled to a promoter and the gene for firefly luciferase (CRE luciferase). […] When assay incubation was completed, the luciferase substrate (luciferin) was added and the enzyme converted luciferin to oxyluciferin and produces bioluminescence. The luminescence was measured as the readout for the assay.
The cells used in this assay (clone FCW467-12A/KZ10-1) were BHK cells with BHKTS13 as a parent cell line. The cells were derived from a clone (FCW467-12A) that expresses the human GLP-1 receptor and were established by further transfection with
CRE luciferase to obtain the current clone.
The cells were cultured at 5% CO2 in DMEM medium with 10% FBS, 1×GlutaMAX, 1 mg/ml G418, 240 nM MTX (methotrexate) and 1% pen/strep (penicillin/streptomycin). They were aliquoted and stored in liquid nitrogen. Before each assay, an aliquot was taken up and washed three times in PBS before being suspended at the desired concentration in assay medium. For 96-well plates the suspension was made to give a final concentration of 5×10EE3 cells/well.
The following chemicals were used in the assay: Pluronic F-68 (10%) (Gibco 2404), ovalbumin (Sigma A5503), DMEM w/o phenol red (Gibco 11880-028), 1 M Hepes (Gibco 15630), Glutamax 100× (Gibco 35050) and steadylite plus (PerkinElmer 6016757).
Assay Medium consisted of DMEM w/o phenol red, 10 mM Hepes, lx GlutaMAX, 2% Ovalbumin and 0.2% Pluronic F-68.
Cell stocks were thawed in a 37° C. water bath. Cells were washed three times in PBS. The cells were counted and adjusted to 5×10EE3 cells/50 μl (1×10EE5 cells/ml) in Assay Medium. A 50 μl aliquot of cells was transferred to each well in the assay plate.
Stocks of the test compounds and reference compounds were diluted to a concentration of […] in Assay Medium. Compounds were diluted 10-fold to give the following concentrations: 2×10EE-6 M, 2×10EE-7 M, 2×10EE-8 M; 2×10EE-9 M, 2×10EE-10 M, 2×10EE-11 M, 2×10EE-12 M and 2×10EE-13 M. For each compound a blank assay medium control was also included.
A 50 μl aliquot of compound or blank was transferred from the dilution plate to the assay plate. Compounds were tested at the following final concentrations: 1×10EE-6 M, 1×10EE-7 M, 1×10EE-8 M; 1×10EE-9 M, 1×10EE-10 M, 1×10EE-11 M and 1×10EE-12 M and 1×10EE-13 M.
The assay plate was incubated for 3 h in a 5% CO2 incubator at 37° C. The assay plate was removed from the incubator and allowed to stand at room temperature for 15 min. A 100 μl aliquot of steadylite plus reagent was added to each well of the assay plate (reagent is light sensitive). Each assay plate was covered with aluminum foil to protect it from light and shaken for 30 min at room temperature. Each assay plate was read in a Perkin Elmer TopCount NXT instrument.
The data from the TopCount instrument was transferred to GraphPad Prism software. The software performed a non-linear regression (log(agonist) vs response-Variable slope (four parameter)). EC50 values were calculated by the software and reported in pM.

[1] = Thioflavin T (ThT) fibrillation assay for physical stability; format: physicochemical; details: 250 μM in 10 mM HEPES buffer, pH 7.5, 37° C., shaking 960 rpm
How it was run: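 Fibrillation was followed by ThT (1 μM) fluorescence every 20 min, 444/485 nm, for 250 μM peptide in 10 mM HEPES pH 7.5 shaken at 960 rpm, 37° C. Lag time (t0−2τ) and apparent rate constant (1/τ) come from a sigmoidal fit. Recovery is % of initial concentration remaining soluble after centrifugation and filtration (RP-HPLC).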

T1 sequence (P43220 24-463): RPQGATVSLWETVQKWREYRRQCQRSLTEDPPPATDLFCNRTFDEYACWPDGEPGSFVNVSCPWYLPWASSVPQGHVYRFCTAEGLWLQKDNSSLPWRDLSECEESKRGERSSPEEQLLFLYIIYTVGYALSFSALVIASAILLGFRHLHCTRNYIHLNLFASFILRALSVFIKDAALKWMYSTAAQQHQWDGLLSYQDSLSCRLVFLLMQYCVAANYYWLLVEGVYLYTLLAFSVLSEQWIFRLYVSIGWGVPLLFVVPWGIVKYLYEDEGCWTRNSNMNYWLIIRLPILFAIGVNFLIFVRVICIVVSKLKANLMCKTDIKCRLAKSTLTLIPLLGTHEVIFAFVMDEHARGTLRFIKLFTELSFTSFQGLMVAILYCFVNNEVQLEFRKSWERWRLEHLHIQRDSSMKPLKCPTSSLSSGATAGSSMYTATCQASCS

SMILES	EC50 (human GLP-1 receptor) [nM]	THT assay Lag time (Ex. 76) [1] [h]
CC(C)C[C@H](NC(=O)[C@H](CC(C)C)NC(=O)[C@H](Cc1c[nH]c2ccccc12)NC(=O)[C@H](CCC(N)=O)NC(=O)[C@@H](NC(=O)[C@H](Cc1ccccc1)NC(=O)[C@H](CC(=O)O)NC(=O)[C@H](CCCCN)NC(=O)[C@H](C)NC(=O)[C@H](CCCNC(=N)N)NC(=O)[C@H](CCCNC(=N)N)NC(=O)[C@H](CCC(=O)O)NC(=O)[C@H](CC(=O)O)NC(=O)[C@H](CC(C)C)NC(=O)[C@H](Cc1ccc(O)cc1)NC(=O)[C@H](CCCCN)NC(=O)[C@H](CO)NC(=O)[C@H](CC(C)C)NC(=O)[C@H](CC(=O)O)NC(=O)[C@H](CO)NC(=O)[C@@H](NC(=O)[C@H](Cc1ccccc1)NC(=O)[C@@H](NC(=O)CNC(=O)[C@H](CCC(N)=O)NC(=O)C(C)(C)NC(=O)[C@@H](N)Cc1c[nH]cn1)[C@@H](C)O)[C@@H](C)O)C(C)C)C(=O)N[C@@H](CO)C(=O)N[C@@H](CCCCNC(=O)CC[C@H](NC(=O)CC[C@H](NC(=O)COCCOCCNC(=O)COCCOCCNC(=O)CC[C@H](NC(=O)CCCCCCCCCCCCCCCCC(=O)O)C(=O)O)C(=O)O)C(=O)O)C(N)=O [Example 13, N^ε29-[(4S)-4-carboxy-4-[[(4S)-4-carboxy-4-[[2-[2-[2-[[2-[2-[2-[[(4S)-4-carboxy-4-(17-carboxyheptadecanoylamino)butanoyl]amino]ethoxy]ethoxy]acetyl]amino]ethoxy]ethoxy]acetyl]amino]butanoyl]amino]butanoyl]-[Aib2,Leu10,Glu16,Lys20,Leu27,Ser28,Lys29]-Glucagon amide] (H-H[Aib]QGTFTSDLSKYLDERRAKDFVQWLLSK([γGlu-γGlu-AEEA-AEEA-γGlu-C18 diacid])-NH2; N-terminus assumed)	0.006	
CC(C)C[C@H](NC(=O)[C@H](CC(C)C)NC(=O)[C@H](Cc1c[nH]c2ccccc12)NC(=O)[C@H](CCCNC(=N)N)NC(=O)[C@@H](NC(=O)[C@H](Cc1ccccc1)NC(=O)[C@H](CC(=O)O)NC(=O)[C@H](CCC(N)=O)NC(=O)[C@H](C)NC(=O)[C@H](CCCNC(=N)N)NC(=O)[C@H](CCCNC(=N)N)NC(=O)[C@@H](NC(=O)[C@H](CC(=O)O)NC(=O)[C@H](CC(C)C)NC(=O)[C@H](Cc1ccc(O)cc1)NC(=O)[C@H](CCCCN)NC(=O)[C@H](CO)NC(=O)[C@H](CC(C)C)NC(=O)[C@H](CC(=O)O)NC(=O)[C@H](CO)NC(=O)[C@@H](NC(=O)[C@H](Cc1ccccc1)NC(=O)[C@@H](NC(=O)CNC(=O)[C@H](CCC(N)=O)NC(=O)C(C)(C)NC(=O)[C@@H](N)Cc1c[nH]cn1)[C@@H](C)O)[C@@H](C)O)[C@@H](C)O)C(C)C)C(=O)N[C@@H](CO)C(=O)N[C@@H](CCCCNC(=O)CC[C@H](NC(=O)CC[C@H](NC(=O)COCCOCCNC(=O)COCCOCCNC(=O)CC[C@H](NC(=O)CCCCCCCCCCCCCCCCC(=O)O)C(=O)O)C(=O)O)C(=O)O)C(N)=O [Example 15, N^ε29-[(4S)-4-carboxy-4-[[(4S)-4-carboxy-4-[[2-[2-[2-[[2-[2-[2-[[(4S)-4-carboxy-4-(17-carboxyheptadecanoylamino)butanoyl]amino]ethoxy]ethoxy]acetyl]amino]ethoxy]ethoxy]acetyl]amino]butanoyl]amino]butanoyl]-[Aib2,Leu10,Thr16,Arg24,Leu27,Ser28,Lys29]-Glucagon amide] (H-H[Aib]QGTFTSDLSKYLDTRRAQDFVRWLLSK([γGlu-γGlu-AEEA-AEEA-γGlu-C18 diacid])-NH2; N-terminus assumed)	0.02	
CC(C)C[C@H](NC(=O)[C@H](Cc1ccc(O)cc1)NC(=O)[C@H](CCCCN)NC(=O)[C@H](CO)NC(=O)[C@H](CC(C)C)NC(=O)[C@H](CC(=O)O)NC(=O)[C@H](CO)NC(=O)[C@@H](NC(=O)[C@H](Cc1ccccc1)NC(=O)[C@@H](NC(=O)CNC(=O)[C@H](CCC(N)=O)NC(=O)C1(NC(=O)[C@@H](N)Cc2c[nH]cn2)CC1)[C@@H](C)O)[C@@H](C)O)C(=O)N[C@@H](CCC(=O)O)C(=O)N[C@@H](CO)C(=O)N[C@@H](CCCNC(=N)N)C(=O)N[C@@H](CCCNC(=N)N)C(=O)N[C@@H](C)C(=O)N[C@@H](CCCNC(=N)N)C(=O)N[C@@H](CCC(=O)O)C(=O)N[C@@H](Cc1ccccc1)C(=O)N[C@H](C(=O)N[C@@H](CCC(N)=O)C(=O)N[C@@H](Cc1c[nH]c2ccccc12)C(=O)N[C@@H](CC(C)C)C(=O)N[C@@H](CC(C)C)C(=O)N[C@@H](CCCCNC(=O)CC[C@H](NC(=O)CC[C@H](NC(=O)COCCOCCNC(=O)COCCOCCNC(=O)CC[C@H](NC(=O)CCCCCCCCCCCCCCCCC(=O)O)C(=O)O)C(=O)O)C(=O)O)C(=O)N[C@H](C(N)=O)[C@@H](C)O)C(C)C [Example 50, N^ε28-[(4S)-4-carboxy-4-[[(4S)-4-carboxy-4-[[2-[2-[2-[[2-[2-[2-[[(4S)-4-carboxy-4-(17-carboxyheptadecanoylamino)butanoyl]amino]ethoxy]ethoxy]acetyl]amino]ethoxy]ethoxy]acetyl]amino]butanoyl]amino]butanoyl]-[Acpr2,Leu10,Glu15,Arg20,Glu21,Leu27,Lys28]-Glucagon amide] (H-H[Ac3c]QGTFTSDLSKYLESRRAREFVQWLLK([γGlu-γGlu-AEEA-AEEA-γGlu-C18 diacid])T-NH2; N-terminus assumed)	0.011	28
CC(C)C[C@H](NC(=O)[C@H](CC(=O)O)NC(=O)[C@H](CC(C)C)NC(=O)[C@H](Cc1ccc(O)cc1)NC(=O)[C@H](CCCCN)NC(=O)[C@H](CO)NC(=O)[C@H](CC(C)C)NC(=O)[C@H](CC(=O)O)NC(=O)[C@H](CO)NC(=O)[C@@H](NC(=O)[C@H](Cc1ccccc1)NC(=O)[C@@H](NC(=O)CNC(=O)[C@H](CCC(N)=O)NC(=O)C(C)(C)NC(=O)[C@@H](N)Cc1c[nH]cn1)[C@@H](C)O)[C@@H](C)O)C(=O)N[C@@H](CCCNC(=N)N)C(=O)N[C@@H](CCCNC(=N)N)C(=O)N[C@@H](C)C(=O)N[C@@H](CCC(N)=O)C(=O)N[C@@H](CC(=O)O)C(=O)N[C@@H](Cc1ccccc1)C(=O)N[C@H](C(=O)N[C@@H](CCC(N)=O)C(=O)N[C@@H](Cc1c[nH]c2ccccc12)C(=O)N[C@@H](CC(C)C)C(=O)N[C@@H](CC(C)C)C(=O)N[C@@H](CCCCNC(=O)CC[C@H](NC(=O)CC[C@H](NC(=O)[C@H](CO)NC(=O)[C@H](CCC(=O)O)NC(=O)[C@H](CO)NC(=O)CC[C@H](NC(=O)CC[C@H](NC(=O)CCCCCCCCCCCCCCCCC(=O)O)C(=O)O)C(=O)O)C(=O)O)C(=O)O)C(=O)N[C@H](C(N)=O)[C@@H](C)O)C(C)C [Example 53, N^ε28-[(4S)-4-carboxy-4-[[(4S)-4-carboxy-4-[[(2S)-2-[[(2S)-4-carboxy-2-[[(2S)-2-[[(4S)-4-carboxy-4-[[(4S)-4-carboxy-4-(17-carboxyheptadecanoylamino)butanoyl]amino]butanoyl]amino]-3-hydroxypropanoyl]amino]butanoyl]amino]-3-hydroxypropanoyl]amino]butanoyl]amino]butanoyl]-[Aib2,Leu10,Leu16,Leu27,Lys28]-Glucagon amide] (H-H[Aib]QGTFTSDLSKYLDLRRAQDFVQWLLK([γGlu-γGlu-Ser-Glu-Ser-γGlu-γGlu-C18 diacid])T-NH2; N-terminus assumed)	0.011	45
